# Structures can show the parent of a compound that is named as a salt.
# System: patients with seasonal allergic rhinitis (SAR)
# Assay: MP 428 study: individual symptom severity scores (runny nose, itchy nose, sneezing, congestion; 0-3 scale)
# Type: in vivo, human
# Conditions: Intent-to-Treat Population
# Procedure: A two-week, randomized, double-blind study, which evaluated the effects of the co-administration of ASTELIN® (azelastine hydrochloride (HCl)) and FLONASE® (fluticasone propionate) compared to either product alone in patients with seasonal allergic rhinitis (SAR) was conducted during the 2006 Texas mountain cedar season. After a 5-day placebo lead-in period, 151 patients with moderate-to-severe allergic rhinitis symptoms were randomized to either: (1) (49 total patients) ASTELIN® (azelastine hydrochloride (HCl)) plus placebo saline nasal spray 2 sprays per nostril, 15 minutes apart, twice daily (AM & PM); (2) (50 total patients) FLONASE® (fluticasone propionate) plus placebo saline nasal spray, 2 sprays per nostril, 15 minutes apart, once daily (AM) and two sessions of placebo saline nasal spray, 2 sprays per nostril, 15 minutes apart (PM); or (3) (52 total patients) the co-administration of ASTELIN® (azelastine hydrochloride (HCl)) 2 sprays per nostril plus FLONASE® (fluticasone propionate) 2 sprays per nostril (AM), 15 minutes apart, and ASTELIN® (azelastine hydrochloride (HCl)) 2 sprays per nostril plus placebo saline nasal spray, 15 minutes apart, (PM) for a 2-week double-blind treatment period.
# The primary efficacy variable was the change from baseline in the Total Nasal Symptom Score (TNSS), which comprised sneezing, itchy nose, runny nose, and nasal congestion (individual symptoms scores were assigned a value between 0 and 3, where 0=no symptoms and 3=severe symptoms). This study was not statistically designed to assess the differences between ASTELIN® and FLONASE®.
# The results of the clinical trial are summarized and presented in Appendix A hereinbelow and in FIGS. 1-6. […] FIGS. 2-5 show the mean improvement in severity score (0-3 scale) from baseline for the symptoms of runny nose, itchy nose, sneezing and congestion, respectively.
compound,measurement,setting,value
"CN1CCCC(n2nc(Cc3ccc(Cl)cc3)c3ccccc3c2=O)CC1 (racemic) [Azelastine, (±)-1-(2H)-phthalazinone, 4-[(4-chlorophenyl)methyl]-2-(hexahydro-1-methyl-1H-azepin-4-yl)-, mono-hydrochloride]","Percent Change from Baseline in AM and PM Combined Nasal Symptom Score: Congestion, LS Mean",Day 12,−21.71%
same,"Percent Change from Baseline in AM and PM Combined Nasal Symptom Score: Congestion, Mean",Day 12,−22.63%
same,"Percent Change from Baseline in AM and PM Combined Nasal Symptom Score: Congestion, Median",Day 12,−16.67%
same,"Percent Change from Baseline in AM and PM Combined Nasal Symptom Score: Itchy Nose, LS Mean",Day 12,−29.11%
same,"Percent Change from Baseline in AM and PM Combined Nasal Symptom Score: Itchy Nose, Mean",Day 12,−28.74%
same,"Percent Change from Baseline in AM and PM Combined Nasal Symptom Score: Itchy Nose, Median",Day 12,−16.67%
same,"Percent Change from Baseline in AM and PM Combined Nasal Symptom Score: Runny Nose, LS Mean",Day 12,−22.75%
same,"Percent Change from Baseline in AM and PM Combined Nasal Symptom Score: Runny Nose, Mean",Day 12,−23.43%
same,"Percent Change from Baseline in AM and PM Combined Nasal Symptom Score: Runny Nose, Median",Day 12,−8.40%
same,"Percent Change from Baseline in AM and PM Combined Nasal Symptom Score: Sneezing, LS Mean",Day 12,−34.92%
same,"Percent Change from Baseline in AM and PM Combined Nasal Symptom Score: Sneezing, Mean",Day 12,−34.06%
same,"Percent Change from Baseline in AM and PM Combined Nasal Symptom Score: Sneezing, Median",Day 12,−33.33%
same,"Change from Baseline in AM and PM Combined Nasal Symptom Score: Congestion, LS Mean",Day 13,−1.25
same,"Change from Baseline in AM and PM Combined Nasal Symptom Score: Congestion, Mean",Day 13,−1.29
same,"Change from Baseline in AM and PM Combined Nasal Symptom Score: Congestion, Median",Day 13,−1.00
same,"Change from Baseline in AM and PM Combined Nasal Symptom Score: Itchy Nose, LS Mean",Day 13,−1.44
same,"Change from Baseline in AM and PM Combined Nasal Symptom Score: Itchy Nose, Mean",Day 13,−1.43
same,"Change from Baseline in AM and PM Combined Nasal Symptom Score: Itchy Nose, Median",Day 13,−1.15
same,"Change from Baseline in AM and PM Combined Nasal Symptom Score: Runny Nose, LS Mean",Day 13,−1.36
same,"Change from Baseline in AM and PM Combined Nasal Symptom Score: Runny Nose, Mean",Day 13,−1.38
same,"Change from Baseline in AM and PM Combined Nasal Symptom Score: Runny Nose, Median",Day 13,−1.07
same,"Change from Baseline in AM and PM Combined Nasal Symptom Score: Sneezing, LS Mean",Day 13,−1.60
same,"Change from Baseline in AM and PM Combined Nasal Symptom Score: Sneezing, Mean",Day 13,−1.60
same,"Change from Baseline in AM and PM Combined Nasal Symptom Score: Sneezing, Median",Day 13,−1.75
same,"Percent Change from Baseline in AM and PM Combined Nasal Symptom Score: Congestion, LS Mean",Day 13,−22.44%
same,"Percent Change from Baseline in AM and PM Combined Nasal Symptom Score: Congestion, Mean",Day 13,−23.01%
same,"Percent Change from Baseline in AM and PM Combined Nasal Symptom Score: Congestion, Median",Day 13,−18.64%
same,"Percent Change from Baseline in AM and PM Combined Nasal Symptom Score: Itchy Nose, LS Mean",Day 13,−32.25%
same,"Percent Change from Baseline in AM and PM Combined Nasal Symptom Score: Itchy Nose, Mean",Day 13,−31.63%
same,"Percent Change from Baseline in AM and PM Combined Nasal Symptom Score: Itchy Nose, Median",Day 13,−22.33%
same,"Percent Change from Baseline in AM and PM Combined Nasal Symptom Score: Runny Nose, LS Mean",Day 13,−27.36%
same,"Percent Change from Baseline in AM and PM Combined Nasal Symptom Score: Runny Nose, Mean",Day 13,−27.57%
same,"Percent Change from Baseline in AM and PM Combined Nasal Symptom Score: Runny Nose, Median",Day 13,−24.05%
same,"Percent Change from Baseline in AM and PM Combined Nasal Symptom Score: Sneezing, LS Mean",Day 13,−35.90%
same,"Percent Change from Baseline in AM and PM Combined Nasal Symptom Score: Sneezing, Mean",Day 13,−35.28%
same,"Percent Change from Baseline in AM and PM Combined Nasal Symptom Score: Sneezing, Median",Day 13,−30.43%
same,"Change from Baseline in AM and PM Combined Nasal Symptom Score: Congestion, LS Mean",Day 14,−1.33
same,"Change from Baseline in AM and PM Combined Nasal Symptom Score: Congestion, Mean",Day 14,−1.39
same,"Change from Baseline in AM and PM Combined Nasal Symptom Score: Congestion, Median",Day 14,−1.05
same,"Change from Baseline in AM and PM Combined Nasal Symptom Score: Itchy Nose, LS Mean",Day 14,−1.39
same,"Change from Baseline in AM and PM Combined Nasal Symptom Score: Itchy Nose, Mean",Day 14,−1.39
same,"Change from Baseline in AM and PM Combined Nasal Symptom Score: Itchy Nose, Median",Day 14,−1.15
same,"Change from Baseline in AM and PM Combined Nasal Symptom Score: Runny Nose, LS Mean",Day 14,−1.32
same,"Change from Baseline in AM and PM Combined Nasal Symptom Score: Runny Nose, Mean",Day 14,−1.34
same,"Change from Baseline in AM and PM Combined Nasal Symptom Score: Runny Nose, Median",Day 14,−1.43
same,"Change from Baseline in AM and PM Combined Nasal Symptom Score: Sneezing, LS Mean",Day 14,−1.51
same,"Change from Baseline in AM and PM Combined Nasal Symptom Score: Sneezing, Mean",Day 14,−1.50
same,"Change from Baseline in AM and PM Combined Nasal Symptom Score: Sneezing, Median",Day 14,−1.35
same,"Percent Change from Baseline in AM and PM Combined Nasal Symptom Score: Congestion, LS Mean",Day 14,−23.87%
same,"Percent Change from Baseline in AM and PM Combined Nasal Symptom Score: Congestion, Mean",Day 14,−24.78%
same,"Percent Change from Baseline in AM and PM Combined Nasal Symptom Score: Congestion, Median",Day 14,−20.79%
same,"Percent Change from Baseline in AM and PM Combined Nasal Symptom Score: Itchy Nose, LS Mean",Day 14,−31.60%
same,"Percent Change from Baseline in AM and PM Combined Nasal Symptom Score: Itchy Nose, Mean",Day 14,−31.14%
same,"Percent Change from Baseline in AM and PM Combined Nasal Symptom Score: Itchy Nose, Median",Day 14,−25.00%
same,"Percent Change from Baseline in AM and PM Combined Nasal Symptom Score: Runny Nose, LS Mean",Day 14,−25.17%
same,"Percent Change from Baseline in AM and PM Combined Nasal Symptom Score: Runny Nose, Mean",Day 14,−25.22%
same,"Percent Change from Baseline in AM and PM Combined Nasal Symptom Score: Runny Nose, Median",Day 14,−29.41%
same,"Percent Change from Baseline in AM and PM Combined Nasal Symptom Score: Sneezing, LS Mean",Day 14,−30.86%
same,"Percent Change from Baseline in AM and PM Combined Nasal Symptom Score: Sneezing, Mean",Day 14,−29.95%
same,"Percent Change from Baseline in AM and PM Combined Nasal Symptom Score: Sneezing, Median",Day 14,−27.93%
same,"Change from Baseline in AM and PM Combined Nasal Symptom Score: Congestion, LS Mean",Overall (Day 2 to Day 14),−1.08
same,"Change from Baseline in AM and PM Combined Nasal Symptom Score: Congestion, Mean",Overall (Day 2 to Day 14),−1.12
same,"Change from Baseline in AM and PM Combined Nasal Symptom Score: Congestion, Median",Overall (Day 2 to Day 14),−0.77
same,"Change from Baseline in AM and PM Combined Nasal Symptom Score: Itchy Nose, LS Mean",Overall (Day 2 to Day 14),−1.14
same,"Change from Baseline in AM and PM Combined Nasal Symptom Score: Itchy Nose, Mean",Overall (Day 2 to Day 14),−1.16
same,"Change from Baseline in AM and PM Combined Nasal Symptom Score: Itchy Nose, Median",Overall (Day 2 to Day 14),−0.98
same,"Change from Baseline in AM and PM Combined Nasal Symptom Score: Runny Nose, LS Mean",Overall (Day 2 to Day 14),−1.06
same,"Change from Baseline in AM and PM Combined Nasal Symptom Score: Runny Nose, Mean",Overall (Day 2 to Day 14),−1.08
same,"Change from Baseline in AM and PM Combined Nasal Symptom Score: Runny Nose, Median",Overall (Day 2 to Day 14),−0.67
same,"Change from Baseline in AM and PM Combined Nasal Symptom Score: Sneezing, LS Mean",Overall (Day 2 to Day 14),−1.48
same,"Change from Baseline in AM and PM Combined Nasal Symptom Score: Sneezing, Mean",Overall (Day 2 to Day 14),−1.49
same,"Change from Baseline in AM and PM Combined Nasal Symptom Score: Sneezing, Median",Overall (Day 2 to Day 14),−1.31
same,"Percent Change from Baseline in AM and PM Combined Nasal Symptom Score: Congestion, LS Mean",Overall (Day 2 to Day 14),−19.23%
same,"Percent Change from Baseline in AM and PM Combined Nasal Symptom Score: Congestion, Mean",Overall (Day 2 to Day 14),−19.82%
same,"Percent Change from Baseline in AM and PM Combined Nasal Symptom Score: Congestion, Median",Overall (Day 2 to Day 14),−12.82%
same,"Percent Change from Baseline in AM and PM Combined Nasal Symptom Score: Itchy Nose, LS Mean",Overall (Day 2 to Day 14),−25.36%
same,"Percent Change from Baseline in AM and PM Combined Nasal Symptom Score: Itchy Nose, Mean",Overall (Day 2 to Day 14),−25.53%
same,"Percent Change from Baseline in AM and PM Combined Nasal Symptom Score: Itchy Nose, Median",Overall (Day 2 to Day 14),−19.66%
same,"Percent Change from Baseline in AM and PM Combined Nasal Symptom Score: Runny Nose, LS Mean",Overall (Day 2 to Day 14),−20.47%
same,"Percent Change from Baseline in AM and PM Combined Nasal Symptom Score: Runny Nose, Mean",Overall (Day 2 to Day 14),−21.06%
same,"Percent Change from Baseline in AM and PM Combined Nasal Symptom Score: Runny Nose, Median",Overall (Day 2 to Day 14),−15.44%
same,"Percent Change from Baseline in AM and PM Combined Nasal Symptom Score: Sneezing, LS Mean",Overall (Day 2 to Day 14),−34.20%
same,"Percent Change from Baseline in AM and PM Combined Nasal Symptom Score: Sneezing, Mean",Overall (Day 2 to Day 14),−33.98%
same,"Percent Change from Baseline in AM and PM Combined Nasal Symptom Score: Sneezing, Median",Overall (Day 2 to Day 14),−33.20%

# From patent US8758816B2, “Compositions comprising azelastine and methods of use thereof” (priority 2004, dated 2014)
